Among the test systems are HT29 colon; OVCAR-4 ovarian; SW-620 colon; MDA-MB-231 breast; SF-295 CNS; SK-MEL-28 melanoma; UACC-62 melanoma; KM12 colon; NCI/ADR-RES ovarian; NCI-H522 lung.
Assay in all cases: growth of human tumour cells (NCI), 48 h

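Step 1: Grow cells in 96-well plates. Step 2: Expose to compound for 48 hours at 5 concentrations. Step 3: Interpolate endpoints linearly; if unreached, use highest concentration. TGI denotes the concentration required for complete inhibition of growth.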 Bounds are passed on as bounds.

On to `OC(CCN1CCN(CCOC(c2ccc(F)cc2)c2ccc(F)cc2)CC1)c1ccc(Br)cc1` (stereo not given), for which the TGI with HT29 colon came out at 12.7 µM; with OVCAR-4 ovarian, 13.9 µM; in the assay on SW-620 colon it was 31.2 µM; in the assay on MDA-MB-231 breast it was 19.9 µM; with SF-295 CNS it was 9.73 µM; with SK-MEL-28 melanoma, 7.9 µM. Besides, the TGI in the assay with UACC-62 melanoma worked out at 12.7 µM; with KM12 colon, 8.07 µM; in the assay on NCI/ADR-RES ovarian, 7.67 µM; with NCI-H522 lung it was 16.4 µM.
Regarding `CCC1(c2ccc(OC)c(OC)c2)CCN2C(=O)C(O)CC21` (stereo not given), the TGI in the assay on HT29 colon, with OVCAR-4 ovarian, in the assay with SW-620 colon, in the assay on MDA-MB-231 breast, in the assay with SF-295 CNS and in the assay on SK-MEL-28 melanoma was > 100 µM in each case. Also, the TGI with UACC-62 melanoma, in the assay with KM12 colon, in the assay on NCI/ADR-RES ovarian and in the assay on NCI-H522 lung was > 100 µM in each case.
Turning to `O=C(O)Cn1c[n+](NC(=O)Cc2ccccc2)cn1`, the TGI in the assay on HT29 colon, in the assay on OVCAR-4 ovarian, in the assay with SW-620 colon, in the assay on MDA-MB-231 breast, with SF-295 CNS and with SK-MEL-28 melanoma was > 10 µM throughout. In addition, the TGI with UACC-62 melanoma, in the assay on KM12 colon, in the assay on NCI/ADR-RES ovarian and with NCI-H522 lung was > 10 µM in each case.
With `CC12CCC(=O)[C@@]1(C)CCCC2=O` (stereo not given in full), the TGI in the assay with HT29 colon, with OVCAR-4 ovarian, in the assay with SW-620 colon, in the assay with MDA-MB-231 breast, in the assay with SF-295 CNS and in the assay on SK-MEL-28 melanoma was > 100 µM in each case. Further, the TGI with UACC-62 melanoma, in the assay with KM12 colon, in the assay with NCI/ADR-RES ovarian and with NCI-H522 lung was > 100 µM each time.
Turning to `CCOC(=O)C(NC(=O)CC)(Nc1ccccc1F)C(F)(F)F` (stereo not given), the TGI with HT29 colon, in the assay with OVCAR-4 ovarian, in the assay with SW-620 colon, with MDA-MB-231 breast, in the assay with SF-295 CNS and in the assay with SK-MEL-28 melanoma was > 100 µM throughout. The TGI with UACC-62 melanoma, in the assay on KM12 colon, in the assay with NCI/ADR-RES ovarian and in the assay with NCI-H522 lung was > 100 µM each time.
Turning to `CO[C@H](C)[C@](O)(C(=O)OCC1=CCN2CC[C@@H](O)[C@H]12)C(C)C`, the TGI in the assay on HT29 colon, in the assay on OVCAR-4 ovarian, in the assay with SW-620 colon, with MDA-MB-231 breast, in the assay with SF-295 CNS and with SK-MEL-28 melanoma was > 100 µM throughout. Moreover, the TGI in the assay on UACC-62 melanoma, with KM12 colon, in the assay on NCI/ADR-RES ovarian and in the assay on NCI-H522 lung was > 100 µM in each case.
`C[N+]1(CCCCN2c3ccccc3Sc3cc(N=[N+]=[N-])ccc32)CCN(C(=O)CCNC(=O)Cc2ccc(C(=O)c3ccccc3)cc2)CC1`: the TGI in the assay on HT29 colon is 52.6 µM; in the assay with OVCAR-4 ovarian, 48.8 µM; in the assay on SW-620 colon, > 74.6 µM; in the assay on MDA-MB-231 breast, 81 µM; in the assay with SF-295 CNS, 45.5 µM; with SK-MEL-28 melanoma, 46.4 µM. Further, the TGI with UACC-62 melanoma is > 69.2 µM; with KM12 colon it was 61.2 µM; in the assay on NCI/ADR-RES ovarian, > 91.1 µM; with NCI-H522 lung, > 76.9 µM.
As for `O=C1c2c(Br)sc(Br)c2[C@H]2OC(=S)N[C@@H]12`, the TGI in the assay on HT29 colon is 4.05 µM; with OVCAR-4 ovarian it was 13.3 µM; in the assay on SW-620 colon, 5.84 µM; in the assay on MDA-MB-231 breast, 25 µM; in the assay on SF-295 CNS, 30.1 µM; in the assay on SK-MEL-28 melanoma, 7.94 µM. The TGI in the assay with UACC-62 melanoma was found to be 24.1 µM; in the assay with KM12 colon, 38.8 µM; with NCI/ADR-RES ovarian it was 31.6 µM; in the assay on NCI-H522 lung, 3.4 µM.
With `O=C1C=CC(=O)c2c(O)c(N3CCN(c4ncccn4)CC3)c(Cl)c(O)c21`, the TGI with HT29 colon came to 6.73 µM; with OVCAR-4 ovarian, 3.69 µM; with SW-620 colon, 2.97 µM; in the assay with MDA-MB-231 breast, 3.75 µM; with SF-295 CNS, 25.5 µM; in the assay with SK-MEL-28 melanoma, 4.57 µM. In addition, the TGI in the assay with UACC-62 melanoma stood at 6.02 µM; with KM12 colon, 15.2 µM; in the assay with NCI/ADR-RES ovarian, 8.69 µM; in the assay on NCI-H522 lung, 4.42 µM.
With `Cc1ccc2nc(Nc3ccccc3C)c(Nc3ccccc3C)nc2c1`, the TGI is > 81.1 µM in the assay with HT29 colon; > 100 µM with OVCAR-4 ovarian; > 100 µM in the assay on SW-620 colon; > 100 µM in the assay with MDA-MB-231 breast; 52.3 µM in the assay with SF-295 CNS; > 100 µM with SK-MEL-28 melanoma. In addition, the TGI in the assay on UACC-62 melanoma was > 90.7 µM; in the assay on KM12 colon, 45.8 µM; in the assay with NCI/ADR-RES ovarian it was > 100 µM; in the assay with NCI-H522 lung it was 35.9 µM.
Regarding `O=C1CCCC2=C1CC1=C(CCCC1=O)N2c1ccc(-c2ccccc2)cc1`, the TGI in the assay on HT29 colon, in the assay on OVCAR-4 ovarian, in the assay on SW-620 colon, with MDA-MB-231 breast, with SF-295 CNS and in the assay on SK-MEL-28 melanoma was > 100 µM in each case. For the same compound, the TGI with UACC-62 melanoma, with KM12 colon, in the assay with NCI/ADR-RES ovarian and with NCI-H522 lung was > 100 µM each time.

Values taken from PubChem BioAssay (NCI).
